In paper PMC8154177 (Circulation, 2021):
Like-named read-outs stand apart in the source and are kept apart here.

Key:
human Nav1.5 (WT) [1] = target: T1, human Nav1.5 (WT) (Homo sapiens, UniProt Q14524); conditions: for Effect on peak-INa: over a range of concentrations
human Nav1.5 (WT) [2] = target: T1, human Nav1.5 (WT); test: cell-based
[3] = system: cardiac sodium current (peak, total, late-INa) in sham cardiomyocytes; test: Whole-cell patch-clamp of sodium currents in cardiomyocytes from sham-operated mice; type: cell-based, mouse; conditions: 10 µmol/L
Experimental: (§1) Male C57BL/6 N mice (7 weeks of age) were obtained from Charles River Canada (St. Foy, Quebec) and housed in a temperature and humidity-controlled animal facility with a 12:12-hour light-dark cycle for a minimum of 1 week before investigation. Animals were maintained on Rodent Chow #5001 and water ad libitum. Eight-week-old mice weighing 20 to 25 g were anesthetized with a cocktail of ketamine (100 mg/kg) and xylazine (20 mg/kg) intraperitoneal and preoperative analgesia (meloxicam, 1–2 mg/kg subcutaneous). Once animals reached a surgical plane, endotracheal intubation was performed using 22-G tubing. The endotracheal tube was then connected to a ventilator (Hugo-Sachs Electronik Mini-Vent, Harvard Apparatus Canada) and ventilated at 200 to 250 µl stroke volume and 150 breaths/min. Animals were then prepared for surgery (Liquid Tears applied to eyes; chest and throat shaved and washed and topical antiseptic utilized, then draped). A vertical skin incision was made from the suprasternal notch to midsternum, and then straight blunt scissors were used to cut the sternum to the third or fourth rib. Mini-Goldstein (FST) spreaders were used to retract the ribs. The thymus was blunt-dissected and the aortic arch visualized. The transverse arch was carefully dissected free of connective tissue, and a 6/0 silk tie was passed around the arch between the innominate and left carotid arteries. A double-blunted 27-G (0.4-mm) needle was then placed alongside the arch and the tie ligated. The blunted needle was then removed to standardize the stenosis. The thymus was gently replaced, and retractors removed. Two sutures were placed in the sternum, and the skin incision was closed using 6/0 Vicryl suture continuous pattern. Sham-operated animals underwent the same procedure without banding. Animals were removed from the ventilator and left to recover in a prewarmed cage with no bedding until the “righting reflex” was achieved, and checked initially every 5 to 10 minutes for the first 60 minutes, then regularly at 20 to 30 minutes intervals for the next 2 to 3 hours. […]

[4] = system: cardiac sodium current (peak, total, late-INa) in TAC cardiomyocytes; test: Whole-cell patch-clamp of sodium currents in cardiomyocytes from TAC (heart failure) mice; type: cell-based, mouse; conditions: 10 µmol/L
Experimental: as §1

human Nav1.5 R1623Q = target: T2, human Nav1.5 R1623Q (Homo sapiens, UniProt Q14524, R1623Q); test: Whole-cell patch-clamp of recombinant Nav1.5 LQT3 R1623Q mutant; type: cell-based; conditions: 10 µmol/L
T2 construct: expressed in transfected cells; host or cells: HEK293T
Experimental: (§2) The human Nav1.5 gene (SCN5A) in the pcDNA3.1(+)/C-(K)DYK vector (GenScript, Cat No. OHu18270D, USA) was cotransfected with a GFP vector into HEK293T cells using Lipofectamine 3000 (Invitrogen, Cat No. L3000001, USA). Transfected cells were seated on coverslips and used for functional studies within 48 to 72 hours. […] PCR products were cloned into XL-10 Gold Ultracompetent cells (Agilent, Cat No. 200315, USA), and DNA was isolated and purified by GeneElute Plasmid Miniprep kits (Sigma, Cat No. PLN350, USA). The presence of the desired mutations and the integrity of plasmids were then verified by DNA sequencing (The Applied Genomics Core, University of Alberta). The R1623Q LQT3 mutation in human Nav1.5 was constructed as described previously.[42]
(§3) Pipettes were pulled from borosilicate glass (World Precision Instruments, Sarasota, FL) using a P-87 micropipette puller (Sutter Instruments, Novato, CA), and the tips were fire-polished, yielding resistances of 3 to 4 MΩ. The pipette solution contained (in mmol/L) 130 CsCl, 5 NaCl, 5 TEA (tetra-ethyl ammonium chloride)-Cl, 2.5 HEPES, 1 EGTA, and 2 MgATP. The pH was adjusted to 7.2 with CsOH. The extracellular solution contained (in mmol/L) 140 NaCl, 10 HEPES, 1 CaCl2, 1.4 MgCl2, 5 KCl, and 5 glucose (pH adjusted to 7.4 with NaOH).

human Nav1.5 ΔKPQ = target: T3, human Nav1.5 ΔKPQ (Homo sapiens, UniProt Q14524, DEL1505-1507); test: Whole-cell patch-clamp of recombinant Nav1.5 LQT3 ΔKPQ mutant; type: cell-based; conditions: 10 µmol/L
T3 construct: host or cells: HEK293T
Experimental: as §2, §3

mouse cardiomyocytes = test: Calcium transients (Fluo-4) in paced single mouse cardiac myocytes, veratridine-induced spontaneous events; type: cell-based
Experimental: Cardiomyocytes were isolated from 3- to 6-month-old male C57Bl6N mice as described above and then loaded with 1 µmol/L Fluo-4 AM for 30 to 60 minutes at room temperature before imaging with an Olympus IX83 inverted microscope. The cells were perfused with a gravity controlled, multi-channel superfusion system at a flow rate of 1.5 mL/min. Fluorescence was recorded at 20 Hz through a UPLSAPO 20X objective and an Andor iXon Ultra 897 camera after excitation at 480 nm for 9.85 ms at 5% intensity of the X-cite 120 LED Boost Excelitas light source. Cardiomyocytes were field-stimulated at 1 Hz at a current value 10% above the threshold current required to elicit contraction using a current stimulator (Warner Instruments, SIU-102) equipped with platinum electrodes submerged in the recording bath. Cardiomyocytes were selected on the basis of their typical rod-shaped morphology, the absence of unpaced calcium events, and their consistent response to field stimulation. […] Regions of interest were selected such that the cardiomyocyte resided within the boundaries of the regions of interest in both its contracted and its relaxed state. The average fluorescence intensity for the regions of interest in every frame was then analyzed. Fifty-second segments of the fluorescence intensity trace in control and treated conditions from the same cardiomyocyte were obtained. Typically, these segments were the last 50 s during the >120 s superfusion of the chosen treatment condition.

human NCX1.1 = target: T4, human NCX1.1 (Homo sapiens, UniProt P32418); test: Whole-cell patch-clamp of reverse-mode NCX1.1 current in HEK293T cells; type: cell-based; conditions: 1 µmol/L
T4 construct: expressed in transfected cells; host or cells: HEK293T
Text: as §3

NLRP3 inflammasome = test: Immunoblot of NLRP3 and TXNIP in isolated mouse hearts after ischemia-reperfusion (Langendorff)
isolated mouse hearts = test: Postischemic functional recovery (LVDP) of isolated Langendorff-perfused mouse hearts
[5] = 1 µmol/L, 30 min ischemia, 40 min reperfusion

Compound: CCOc1ccc(Cc2cc([C@@H]3O[C@H](CO)[C@@H](O)[C@H](O)[C@H]3O)ccc2Cl)cc1 [dapagliflozin]
- Effect on peak-INa (human Nav1.5 (WT) [1]): little inhibitory effect
- IC50 (human Nav1.5 (WT) [2]): 580 nM

Compound: OC[C@H]1O[C@@H](c2ccc(Cl)c(Cc3ccc(O[C@H]4CCOC4)cc3)c2)[C@H](O)[C@@H](O)[C@@H]1O [empagliflozin]
- Effect on late-INa [3]: did not significantly alter
- Effect on peak current [3]: did not significantly alter
- Effect on total sodium current [3]: did not significantly alter
- Effect on late-INa [4]: significantly reduced
- Effect on peak current [4]: did not affect
- Effect on total current (area under the curve) [4]: significantly reduced
- Effect on late component of R1623Q current (human Nav1.5 R1623Q): significantly reduced
- Effect on peak component of R1623Q current (human Nav1.5 R1623Q): significantly reduced
- Activation V50 after drug (human Nav1.5 R1623Q; R1623Q currents): –43.3 mV
- Inactivation V50 after drug (human Nav1.5 R1623Q; R1623Q currents): –97.5 mV
- Effect on peak current of ΔKPQ (human Nav1.5 ΔKPQ; data not shown): did not inhibit
- Steady-state late-INa after drug (human Nav1.5 ΔKPQ; ≈2% before drug): ≈ 1 % of peak current amplitude
- Reduction of the occurrence of veratridine-induced spontaneous transients (mouse cardiomyocytes; 1 µmol/L, 20 nmol/L veratridine, 1 Hz field stimulation): 46%
- Effect on calcium transients in vehicle control-treated cardiomyocytes (mouse cardiomyocytes; no veratridine, data not shown): no observable effect
- Inhibition of reverse-mode NCX1.1 (human NCX1.1): no significant inhibition
- Activation of TXNIP after ischemia-reperfusion (NLRP3 inflammasome; [5]): complete prevention
- Activation of the NLRP3 inflammasome after ischemia-reperfusion (NLRP3 inflammasome; [5]): complete prevention
- Reperfusion functional recovery (LVDP) (isolated mouse hearts; [5]): improved
- Frequency dependence of peak- and late-INa inhibition (human Nav1.5 (WT) [1]; 1 µmol/L, stimulation frequencies 0.2–3 Hz): no significant differences
- Effect on H2O2-induced late-INa in WT channels (human Nav1.5 (WT) [1]; 10 µmol/L): significantly inhibited
- Effect on H2O2-induced late-INa (human Nav1.5 (WT) [1]; 1 and 10 µmol/L): significantly inhibited
- Half-activation voltage (V50) after drug (human Nav1.5 (WT) [1]; WT currents, 10 µmol/L): –42.4 mV
- Effect on peak-INa (human Nav1.5 (WT) [1]): little effect
- IC50 (human Nav1.5 (WT) [2]): 790 nM

Compound: CCN(CC)CC(=O)Nc1c(C)cccc1C [lidocaine]
- Effect on incidence of veratridine-induced spontaneous transients (mouse cardiomyocytes): significantly reduced

Compound: COc1ccccc1OCC(O)CN1CCN(CC(=O)Nc2c(C)cccc2C)CC1 (centres unmarked) [ranolazine]
- Effect on incidence of veratridine-induced spontaneous transients (mouse cardiomyocytes; 10 µmol/L, 20 nmol/L veratridine): significantly reduced

Compound: NC1=N[C@H](O)[C@H]2[C@H]3O[C@]4(O)O[C@@H]([C@@H](O)[C@@]2(N1)[C@@H]4O)[C@]3(O)CO [tetrodotoxin]
- Activation of TXNIP after ischemia-reperfusion (NLRP3 inflammasome): complete prevention
- Activation of the NLRP3 inflammasome after ischemia-reperfusion (NLRP3 inflammasome): complete prevention
- Reperfusion functional recovery (LVDP) (isolated mouse hearts): improved
- Sensitivity of H2O2-induced persistent inward current (late-INa) (human Nav1.5 (WT) [1]): sensitive

Compound: COc1ccc(C(=O)O[C@H]2CC[C@@]3(C)[C@@H]4CC[C@H]5[C@]6(O)C[C@H](O)[C@@]7(O)[C@@H](CN8C[C@@H](C)CC[C@H]8[C@@]7(C)O)[C@]6(O)C[C@@]53O[C@]24O)cc1OC [veratridine]
- Induction of late-INa activity and spontaneous calcium transients (mouse cardiomyocytes; 20 nmol/L, pilot experiments): induces late-INa activity

Compound: canagliflozin
- Effect on peak-INa (human Nav1.5 (WT) [1]): little inhibitory effect
- IC50 (human Nav1.5 (WT) [1]; read-out: IC50 for inhibition of H2O2-induced late-INa, recombinant human Nav1.5 in HEK293T cells, late-INa induced by 30 µmol/L H2O2): 1260 nM
